Tests used:
HDAC1 = HDAC1 (Homo sapiens, UniProt Q13547); experiment: HDAC enzyme assay, recombinant HDAC1
[1] = target: HDAC (HeLa nuclear extracts); experiment: HDAC enzyme assay, HeLa nuclear extracts; settings: read-out: In Vitro Enzymatic IC50 HDAC (HeLa)
PC-3 = experiment: Anti-proliferative assay (cellular IC50), PC-3; settings: Homo sapiens, PC-3, 72 h, read-out: In Vitro Cellular IC50 PC-3
MV-4-11 = experiment: cells; settings: Homo sapiens, MV4-11, 72 h, read-out: In Vitro Cellular IC50 MV-4-11
COLO 205 = experiment: cells; settings: Homo sapiens, COLO 205, 72 h, read-out: In Vitro Cellular IC50 COLO 205
K-562 = experiment: Anti-proliferative assay (cellular IC50), K-562; settings: Homo sapiens, K562, 72 h, read-out: In Vitro Cellular IC50 K-562
MOLT-4 = experiment: Anti-proliferative assay (cellular IC50), MOLT-4; settings: Homo sapiens, MOLT-4, 72 h, read-out: In Vitro Cellular IC50 MOLT-4
Method: (§1) Cells were cultivated at 37° C., 5% CO2 in media containing 10% FBS and 2 mM glutamine Cells were routinely monitored with MycoAlert™ PLUS Mycoplasma Detection Kit (Lonza Walkersville, Inc.) to make sure they were mycoplasma free. Antibiotics (100 U/mL of penicillin and 100 μg/mL of streptomycin) were only added to the media used for compound dilution and cells in 96-well assay plates.
(§2) For a typical screening experiment, cells (100 μL/well) are inoculated into 96 well microtiter plates at plating densities ranging from 2,000 to 30,000 cells/well depending on the doubling time of individual cell lines and assay linearity. […] Suspension cells are treated with test compounds immediately after cell inoculation.
(§3) Test compounds are serially diluted (3-fold or 4-fold, 8-concentration) using the same media and added to the plates (15 to 25 μL/well). After 72 h of cultivation, the plates are assayed for cell cytotoxicity/viability by using the following two methods.
(§4) Cells in plates are fixed with cold trichloroacetic acid (TCA) (50% w/v in DI water, 1/4 volume of the medium in each well), and incubated at 4° C. for 1 h (adherent cells) or 2 h (suspension cells). The plates are washed 5 times (tap water×3, DI water×2) and air-dried. SRB solution 0.4% (w/v) in 1% acetic acid is added to each well (60 μL/well) and the plates are incubated at room temperature for 30 min, then washed with 1% acetic acid solution 4 times, and air-dried.
(§5) The plates are added CellTiter-Glo® Reagent (95 μL/well) and read the luminescence on a BioTek H4 reader per manufacture's protocol.
(§6) The raw data are processed using BioTek's Software Gen5 (v2.03.01) to generate inhibitory IC50 values.

MCF7 = experiment: Anti-proliferative assay (cellular IC50), MCF7; settings: Homo sapiens, MCF7, 72 h, read-out: In Vitro Cellular IC50 MCF7
Method: as §1, §2, §3, §4, §5, §6

Sequence of HDAC1 (Q13547 whole entry): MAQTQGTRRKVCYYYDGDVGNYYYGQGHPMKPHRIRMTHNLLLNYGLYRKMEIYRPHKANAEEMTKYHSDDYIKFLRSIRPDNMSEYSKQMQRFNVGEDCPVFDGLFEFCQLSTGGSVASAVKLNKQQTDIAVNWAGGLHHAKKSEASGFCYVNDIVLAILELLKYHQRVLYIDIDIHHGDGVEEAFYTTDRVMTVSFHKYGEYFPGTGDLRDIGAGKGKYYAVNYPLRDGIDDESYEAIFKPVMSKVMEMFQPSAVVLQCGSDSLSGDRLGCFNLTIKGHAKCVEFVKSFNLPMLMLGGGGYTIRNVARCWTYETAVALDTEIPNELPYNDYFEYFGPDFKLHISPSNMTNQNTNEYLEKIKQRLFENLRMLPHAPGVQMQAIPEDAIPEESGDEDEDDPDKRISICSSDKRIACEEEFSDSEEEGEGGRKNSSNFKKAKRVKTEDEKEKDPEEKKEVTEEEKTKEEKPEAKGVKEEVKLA

Row | IC50 (HDAC1) [nM] | IC50 [1] [nM] | IC50 (PC-3) [µM] | IC50 (MV-4-11) [nM] | IC50 (COLO 205) [µM] | IC50 (K-562) [µM] | IC50 (MOLT-4) [nM] | IC50 (MCF7) [nM] | SMILES
1 | 10 to 100 | 10 to 100 | – | – | – | – | – | – | CC(C)n1cnc2c(-c3cccc(COCCCCC(=O)NO)c3)nc(N3CCOCC3)nc21 [compound 23, N-hydroxy-5-((3-(9-isopropyl-2-morpholino-9H-purin-6-yl)benzyl)oxy)pentanamide]
2 | – | 10 to 100 | 2 to 10 | 500 to 2000 | 2 to 10 | – | – | – | CC(C)n1cnc2c(-c3ccc(F)c(OCCCC(=O)NO)c3)nc(N3CCCC3)nc21 [compound 63, 4-(2-fluoro-5-(9-isopropyl-2-(pyrrolidin-1-yl)-9H-purin-6-yl)phenoxy)-N-hydroxybutanamide]
3 | – | 100 to 1000 | – | 500 to 2000 | > 10 | 2 to 10 | – | – | CCn1c(CN(C)Cc2ccc(/C=C/C(=O)NO)cc2)nc2c(N3CCOCC3)nc(Cl)nc21 [compound 95, (E)-3-(4-((((2-chloro-9-ethyl-6-morpholino-9H-purin-8-yl)methyl)(methyl)amino)methyl)phenyl)-N-hydroxyacrylamide]
4 | – | 100 to 1000 | 2 to 10 | 500 to 2000 | 2 to 10 | – | – | – | CCCn1cnc2c(-c3ccc(F)c(OCCCC(=O)NO)c3)nc(N3CCCC3)nc21 [compound 66, 4-(2-fluoro-5-(9-propyl-2-(pyrrolidin-1-yl)-9H-purin-6-yl)phenoxy)-N-hydroxybutanamide]
5 | 100 to 1000 | 10 to 100 | – | – | > 10 | 2 to 10 | 2000 to 10000 | – | CC(C)n1cnc2c(N3CCOCC3)nc(-c3cccc(OCCCCCCC(=O)NO)c3)nc21 [compound 84, N-hydroxy-7-(3-(9-isopropyl-6-morpholino-9H-purin-2-yl)phenoxy)heptanamide]
6 | – | 1000 to 10000 | 2 to 10 | 500 to 2000 | 2 to 10 | 2 to 10 | – | 2000 to 10000 | CCn1c(CN(C)Cc2ccc(/C=C/C(=O)NO)cc2)nc2c(N3CCOCC3)nc(-c3ccc(OC)nc3)nc21 [compound 93, (E)-3-(4-((((9-ethyl-2-(6-methoxypyridin-3-yl)-6-morpholino-9H-purin-8-yl)methyl)(methyl)amino)methyl)phenyl)-N-hydroxyacrylamide]
7 | – | 100 to 1000 | 2 to 10 | 500 to 2000 | 2 to 10 | – | – | – | CCn1cnc2c(-c3ccc(F)c(OCCCC(=O)NO)c3)nc(N3CCOCC3)nc21 [compound 68, 4-(5-(9-ethyl-2-morpholino-9H-purin-6-yl)-2-fluorophenoxy)-N-hydroxybutanamide]
8 | – | 100 to 1000 | 2 to 10 | 500 to 2000 | 2 to 10 | – | – | – | CCCn1cnc2c(-c3ccc(F)c(OCCCC(=O)NO)c3)nc(N3CCOCC3)nc21 [compound 69, 4-(2-fluoro-5-(2-morpholino-9-propyl-9H-purin-6-yl)phenoxy)-N-hydroxybutanamide]
9 | 1000 to 10000 | 100 to 1000 | < 0.5 | < 500 | 2 to 10 | 2 to 10 | – | 2000 to 10000 | CCN(CC)c1nc(-c2cccc(OCCCC(=O)NO)c2)c2ncn(C(C)C)c2n1 [compound 30, 4-(3-(2-(diethylamino)-9-isopropyl-9H-purin-6-yl)phenoxy)-N-hydroxybutanamide]
10 | – | < 10 | 2 to 10 | 500 to 2000 | 2 to 10 | – | – | – | O=C(CCCCCCn1cnc2c(N3CCCC3)nc(N3CCCC3)nc21)NO [compound 99, 7-(2,6-di(pyrrolidin-1-yl)-9H-purin-9-yl)-N-hydroxyheptanamide]
11 | – | < 10 | – | < 500 | – | – | < 500 | 500 to 2000 | O=C(CCCCCCn1cnc2c(N3CCC(CO)CC3)nc(-c3cccc(CO)c3)nc21)NO [compound 103, N-hydroxy-7-(2-(3-(hydroxymethyl)phenyl)-6-(4-(hydroxymethyl)piperidin-1-yl)-9H-purin-9-yl)heptanamide]
12 | – | 1000 to 10000 | – | 500 to 2000 | > 10 | > 10 | – | – | Nc1ccc(-c2nc(N3CCOCC3)c3ncn(CCCCC(=O)NO)c3n2)cn1 [compound 59, 5-(2-(6-aminopyridin-3-yl)-6-morpholino-9H-purin-9-yl)-N-hydroxypentanamide]
13 | 10 to 100 | < 10 | 2 to 10 | 500 to 2000 | 0.5 to 2 | 0.5 to 2 | < 500 | 500 to 2000 | CC(C)n1cnc2c(N3CCOCC3)nc(-c3cccc(NC(=O)CCCCCCC(=O)NO)c3)nc21 [compound 85, N^1-hydroxy-N^8-(3-(9-isopropyl-6-morpholino-9H-purin-2-yl)phenyl)octanediamide]
14 | 1000 to 10000 | – | – | – | > 10 | > 10 | 2000 to 10000 | – | CCn1c(CN2CCC(C(=O)NO)CC2)nc2c(N3CCOCC3)nc(-c3cnc(N)nc3)nc21 [compound 88, 1-((2-(2-aminopyrimidin-5-yl)-9-ethyl-6-morpholino-9H-purin-8-yl)methyl)-N-hydroxypiperidine-4-carboxamide]
15 | – | < 10 | > 10 | > 10000 | > 10 | – | – | – | O=C(CCCCCn1cnc2c(N3CCOCC3)nc(-c3ccc(F)c(OCCO)c3)nc21)NO [compound 65, 6-(2-(4-fluoro-3-(2-hydroxyethoxy)phenyl)-6-morpholino-9H-purin-9-yl)-N-hydroxyhexanamide]
16 | – | 100 to 1000 | – | 500 to 2000 | 2 to 10 | 2 to 10 | – | – | COc1ccc(-c2nc(N3CCOCC3)c3ncn(CCCCC(=O)NO)c3n2)cn1 [compound 58, N-hydroxy-5-(2-(6-methoxypyridin-3-yl)-6-morpholino-9H-purin-9-yl)pentanamide]
17 | 100 to 1000 | – | – | – | – | – | – | – | CC(C)n1c(NCc2ccc(C(=O)NO)cc2)nc2c(-c3cnc(N)nc3)nc(N3CCOCC3)nc21 [compound 80, 4-(((6-(2-aminopyrimidin-5-yl)-9-isopropyl-2-morpholino-9H-purin-8-yl)amino)methyl)-N-hydroxybenzamide]
18 | – | – | – | > 10000 | < 0.5 | 2 to 10 | – | 2000 to 10000 | Cc1c(CN2CCN(C(=O)[C@H](C)O)CC2)sc2c(N3CCOCC3)nc(-c3cnc(N)nc3)nc12 [GDC-0980, reference compound]
19 | 1000 to 10000 | 1000 to 10000 | – | – | – | – | – | – | CCN(CC)c1nc2c(-c3cnc(N)nc3)nc(N3CCOCC3)nc2n1CCCC(=O)NO [compound 28, 4-(6-(2-aminopyrimidin-5-yl)-8-(diethylamino)-2-morpholino-9H-purin-9-yl)-N-hydroxybutanamide]
20 | 100 to 1000 | 100 to 1000 | – | – | 2 to 10 | 2 to 10 | 500 to 2000 | – | CC(C)n1cnc2c(N3CCOCC3)nc(-c3cccc(OCCCC(=O)NO)c3)nc21 [compound 83, N-hydroxy-4-(3-(9-isopropyl-6-morpholino-9H-purin-2-yl)phenoxy)butanamide]
21 | – | 100 to 1000 | – | – | – | – | – | – | CC(C)n1cnc2c(-c3ccc(OCCCCC(=O)NO)cc3)nc(N3CCOCC3)nc21 [compound 14, N-hydroxy-5-(4-(9-isopropyl-2-morpholino-9H-purin-6-yl)phenoxy)pentanamide]
22 | – | 100 to 1000 | – | 500 to 2000 | 2 to 10 | 2 to 10 | – | – | CCn1c(CN(C)Cc2ccc(/C=C/C(=O)NO)cc2)nc2c(N3CCOCC3)nc(-c3ccc(NS(C)(=O)=O)cc3)nc21 [compound 94, (E)-3-(4-((((9-ethyl-2-(4-(methylsulfonamido)phenyl)-6-morpholino-9H-purin-8-yl)methyl)(methyl)amino)methyl)phenyl)-N-hydroxyacrylamide]
